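Protocol summary: plate cells (96-well), add compound at 5 concentrations, incubate 48 h, interpolate endpoints linearly. GI50: concentration for 50% inhibition of growth. TGI: concentration producing complete growth inhibition.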
What was measured:
Assay in all cases: DTP human tumour cell line panel, 48 h
786-0 renal = test system: 786-0 renal
A498 renal = test system: A498 renal
A549 NSCLC = test system: A549 NSCLC
ACHN renal = test system: ACHN renal
BT-549 breast = test system: BT-549 breast
CAKI-1 renal = test system: CAKI-1 renal
CCRF-CEM leukemia = test system: CCRF-CEM leukemia
COLO 205 colon = test system: COLO 205 colon
DU-145 prostate = test system: DU-145 prostate
EKVX NSCLC = test system: EKVX NSCLC
HCC-2998 colon = test system: HCC-2998 colon
HCT-116 colon = test system: HCT-116 colon
HCT-15 colon = test system: HCT-15 colon
HL-60(TB) leukemia = test system: HL-60(TB) leukemia
HOP-62 NSCLC = test system: HOP-62 NSCLC
HOP-92 NSCLC = test system: HOP-92 NSCLC
HS 578T breast = test system: HS 578T breast
HT29 colon = test system: HT29 colon
IGROV1 ovarian = test system: IGROV1 ovarian
K-562 leukemia = test system: K-562 leukemia
KM12 colon = test system: KM12 colon
LOX IMVI melanoma = test system: LOX IMVI melanoma
M14 melanoma = test system: M14 melanoma
MALME-3M melanoma = test system: MALME-3M melanoma
MCF7 breast = test system: MCF7 breast
MDA-MB-231 breast = test system: MDA-MB-231 breast
MDA-MB-435 = test system: MDA-MB-435
MDA-MB-468 breast = test system: MDA-MB-468 breast
MOLT-4 leukemia = test system: MOLT-4 leukemia
NCI-H226 lung = test system: NCI-H226 lung
NCI-H23 lung = test system: NCI-H23 lung
NCI-H460 lung = test system: NCI-H460 lung
NCI-H522 lung = test system: NCI-H522 lung
NCI/ADR-RES ovarian = test system: NCI/ADR-RES ovarian
OVCAR-3 ovarian = test system: OVCAR-3 ovarian
OVCAR-4 ovarian = test system: OVCAR-4 ovarian
OVCAR-5 ovarian = test system: OVCAR-5 ovarian
OVCAR-8 ovarian = test system: OVCAR-8 ovarian
PC-3 prostate = test system: PC-3 prostate
RPMI-8226 leukemia = test system: RPMI-8226 leukemia
RXF 393 renal = test system: RXF 393 renal
SF-268 CNS = test system: SF-268 CNS
SF-295 CNS = test system: SF-295 CNS
SF-539 CNS = test system: SF-539 CNS
SK-MEL-2 melanoma = test system: SK-MEL-2 melanoma
SK-MEL-28 melanoma = test system: SK-MEL-28 melanoma
SK-MEL-5 melanoma = test system: SK-MEL-5 melanoma
SK-OV-3 ovarian = test system: SK-OV-3 ovarian
SN12C renal = test system: SN12C renal
SNB-19 CNS = test system: SNB-19 CNS
SNB-75 CNS = test system: SNB-75 CNS
SR leukemia = test system: SR leukemia
SW-620 colon = test system: SW-620 colon
T-47D breast = test system: T-47D breast
TK-10 renal = test system: TK-10 renal
U251 CNS = test system: U251 CNS
UACC-257 melanoma = test system: UACC-257 melanoma
UACC-62 melanoma = test system: UACC-62 melanoma
UO-31 renal = test system: UO-31 renal

C=CC[Se]C(=O)c1ccc(C(=O)[Se]CC=C)s1 showed a GI50 (786-0 renal) of 314 nM, a TGI (786-0 renal) of 1160 nM and a GI50 (A498 renal) of 2820 nM. The TGI (A498 renal) was 66.9 µM, the GI50 (A549 NSCLC) was 313 nM and the TGI (A549 NSCLC) was greater than 27.5 µM. It also gave a GI50 (ACHN renal) of 942 nM, a TGI (ACHN renal) of 4.37 µM and a GI50 (BT-549 breast) of 324 nM. The TGI (BT-549 breast) was 1300 nM, the GI50 (CAKI-1 renal) was 810 nM and the TGI (CAKI-1 renal) was 9.76 µM. The GI50 (CCRF-CEM leukemia) was 428 nM, the TGI (CCRF-CEM leukemia) was greater than 21.8 µM and the GI50 (COLO 205 colon) was 1400 nM. The TGI (COLO 205 colon) was 4.03 µM, the GI50 (DU-145 prostate) was 680 nM and the TGI (DU-145 prostate) was 6.4 µM. The GI50 (EKVX NSCLC) was 623 nM, the TGI (EKVX NSCLC) was 1630 nM and the GI50 (HCC-2998 colon) was 313 nM. For the same compound, the TGI (HCC-2998 colon) was 1000 nM, the GI50 (HCT-116 colon) was 327 nM and the TGI (HCT-116 colon) was 1230 nM. It also gave a GI50 (HCT-15 colon) of 765 nM, a TGI (HCT-15 colon) of 2150 nM and a GI50 (HL-60(TB) leukemia) of 581 nM. The TGI (HL-60(TB) leukemia) was 2580 nM, the GI50 (HOP-62 NSCLC) was 152 nM and the TGI (HOP-62 NSCLC) was 1450 nM. It also gave a GI50 (HOP-92 NSCLC) of 920 nM, a TGI (HOP-92 NSCLC) of 7.65 µM and a GI50 (HS 578T breast) of 294 nM. The TGI (HS 578T breast) was 1890 nM, the GI50 (HT29 colon) was 887 nM and the TGI (HT29 colon) was greater than 31.5 µM. It also gave a GI50 (IGROV1 ovarian) of 277 nM, a TGI (IGROV1 ovarian) of 727 nM and a GI50 (K-562 leukemia) of 2100 nM. For the same compound, the TGI (K-562 leukemia) was greater than 23 µM, the GI50 (KM12 colon) was 284 nM and the TGI (KM12 colon) was 928 nM. It also gave a GI50 (LOX IMVI melanoma) of 721 nM, a TGI (LOX IMVI melanoma) of 2000 nM and a GI50 (M14 melanoma) of 387 nM. It also gave a TGI (M14 melanoma) of 1570 nM, a GI50 (MALME-3M melanoma) of 670 nM and a TGI (MALME-3M melanoma) of 2350 nM. It also gave a GI50 (MCF7 breast) of 565 nM, a TGI (MCF7 breast) of 1840 nM and a GI50 (MDA-MB-231 breast) of 676 nM. It also gave a TGI (MDA-MB-231 breast) of 6.41 µM, a GI50 (MDA-MB-435) of 691 nM and a TGI (MDA-MB-435) of 2060 nM. The GI50 (MDA-MB-468 breast) was 657 nM, the TGI (MDA-MB-468 breast) was 1620 nM and the GI50 (MOLT-4 leukemia) was 992 nM. The TGI (MOLT-4 leukemia) was 5.6 µM, the GI50 (NCI-H226 lung) was 794 nM and the TGI (NCI-H226 lung) was 2710 nM. The GI50 (NCI-H23 lung) was 313 nM, the TGI (NCI-H23 lung) was 1030 nM and the GI50 (NCI-H460 lung) was 289 nM. For the same compound, the TGI (NCI-H460 lung) was 1610 nM, the GI50 (NCI-H522 lung) was 524 nM and the TGI (NCI-H522 lung) was 1040 nM. For the same compound, the GI50 (NCI/ADR-RES ovarian) was 261 nM, the TGI (NCI/ADR-RES ovarian) was 661 nM and the GI50 (OVCAR-3 ovarian) was 655 nM. It also gave a TGI (OVCAR-3 ovarian) of 1620 nM, a GI50 (OVCAR-4 ovarian) of 948 nM and a TGI (OVCAR-4 ovarian) of 2500 nM. For the same compound, the GI50 (OVCAR-5 ovarian) was 382 nM, the TGI (OVCAR-5 ovarian) was 1010 nM and the GI50 (OVCAR-8 ovarian) was 345 nM. It also gave a TGI (OVCAR-8 ovarian) of 1090 nM, a GI50 (PC-3 prostate) of 286 nM and a TGI (PC-3 prostate) of 1290 nM. For the same compound, the GI50 (RPMI-8226 leukemia) was 375 nM, the TGI (RPMI-8226 leukemia) was 2430 nM and the GI50 (RXF 393 renal) was 696 nM. It also gave a TGI (RXF 393 renal) of 1640 nM, a GI50 (SF-268 CNS) of 768 nM and a TGI (SF-268 CNS) of 4.83 µM. The GI50 (SF-295 CNS) was 55.2 nM, the TGI (SF-295 CNS) was 317 nM and the GI50 (SF-539 CNS) was 307 nM. The TGI (SF-539 CNS) was 852 nM, the GI50 (SK-MEL-2 melanoma) was 1260 nM and the TGI (SK-MEL-2 melanoma) was 3.17 µM. For the same compound, the GI50 (SK-MEL-28 melanoma) was 666 nM, the TGI (SK-MEL-28 melanoma) was 1850 nM and the GI50 (SK-MEL-5 melanoma) was 1490 nM. The TGI (SK-MEL-5 melanoma) was 3.35 µM, the GI50 (SK-OV-3 ovarian) was 224 nM and the TGI (SK-OV-3 ovarian) was 546 nM. For the same compound, the GI50 (SN12C renal) was 348 nM, the TGI (SN12C renal) was 1110 nM and the GI50 (SNB-19 CNS) was 289 nM. It also gave a TGI (SNB-19 CNS) of 1260 nM, a GI50 (SNB-75 CNS) of 215 nM and a TGI (SNB-75 CNS) of 577 nM. The GI50 (SR leukemia) was 603 nM, the TGI (SR leukemia) was 2210 nM and the GI50 (SW-620 colon) was 800 nM. It also gave a TGI (SW-620 colon) of 2140 nM, a GI50 (T-47D breast) of 265 nM and a TGI (T-47D breast) of 962 nM. For the same compound, the GI50 (TK-10 renal) was 1050 nM, the TGI (TK-10 renal) was 7.56 µM and the GI50 (U251 CNS) was 505 nM. The TGI (U251 CNS) was 1870 nM, the GI50 (UACC-257 melanoma) was 721 nM and the TGI (UACC-257 melanoma) was 2080 nM. The GI50 (UACC-62 melanoma) was 482 nM, the TGI (UACC-62 melanoma) was 1390 nM and the GI50 (UO-31 renal) was 515 nM. For the same compound, the TGI (UO-31 renal) was 1090 nM.

— PubChem BioAssay (NCI)
